Patent publication US20260091147A1, “METHOD FOR DETECTING INNATE IMMUNE ACTION IN VIVO USING GPR84-PET” (The Board of Trustees of the Leland Standford Junior …, priority 2023, published 2026)
“And” between values parts separate entries of the source, which are not always exact repeats. Identical values can stand only once.

Key:
[1] = system: human monocyte-derived macrophages (hMDMs); assay: hMDM radioactive cell binding assay, with or without LPS; assay type: cell-based; conditions: LPS 100 ng/mL; for tracer signal in LPS-challenged hMDMs after co-incubation with GLPG1205: GLPG1205 block
Description: CD14^+ monocytes isolated from PBMCs from human peripheral blood were plated 10×10^6 cells per 10 cm petri dish in 8-10 mL complete growth medium (for quantitative PCR) or 10^6-10^5 cells per well in 1 mL complete growth medium into one 12-well plate per blood donor (radioactive cell binding) and incubated 7-10 days at 5% CO2 in air at 37° C. These cells were then treated with 100 ng/mL LPS in complete growth medium 24 hr or 72 hr prior to experimentation according to previous working concentrations in the literature.
Human monocyte-derived macrophages (hMDMs) were plated at a concentration of 10^6-10^5 cells per well in media (RPMI 1640+glutamax with 10% FBS, 1% anti-anti, and 50 ng/mL M-CSF) into one 12-well plate per blood donor. Once cells adhered to the plate (˜24 hr), 100 ng/mL lipopolysaccharides (LPS) was applied to two of the three rows of the plate. 24 hr later, the [^11C]GLPG38, [^11C]MGX-10S, or [^18F]MGX-110S radiotracer was prepared. The radiotracer was diluted in RPMI 1640 without FBS or antibiotic to yield a 30 mL solution such that the amount of activity was 50 μCi/mL for ^11C or 2 μCi/mL for ^18F. Additionally, a blocking solution was prepared consisting of 35 μM GLPG1205 dissolved in DMSO and added to RPMI 1640 media+tracer solution. The 12-well plates were incubated for 30 min at […] and 5% CO2 in air. Following incubation, the radioactive media was removed and replaced with 500 μL fresh media, and a 10 min efflux was conducted. After efflux, the media was collected into a gamma counting tube to measure supernatant, and the cells were washed with PBS, trypsinized, resuspended in RPMI 1640+glutamax+10% FBS, then pipetted into gamma counting tubes at 500 μL volume.
Radioactivity levels bound to cells were measured in a gamma counter (Hidex Oy, Helsinki, Finland), and cell counts were recorded using Trypan blue and an automatic cell counter to normalize radioactivity levels to cell count.

[2] = Dynamic 60 min PET/CT of healthy mice, whole-brain time activity curve; assay type: in vivo, mouse
Excerpt: A transmission scan was acquired to correct for attenuation during image reconstruction. Following PET imaging, mice were transferred to a SOFIE GNEXT PET/CT for CT acquisition. PET/CT data were co-registered and analyzed using Inveon Research Workplace software to generate images and quantify radiotracer uptake in regions of interest (ROIs). A 3D ROI was manually defined for the whole brain using CT data as anatomical reference, then applied to the full dynamic data set to generate a time activity curve (TAC).
The count densities were averaged for all volumes of interest at each time point to obtain a time-activity curve (TAC). The TACs were normalized to injected dose, as measured by a CRC-15 PET dose calibrator (Capintec Inc.), and expressed as % injected dose per gram (% ID/g), assuming 1 g/mL. CT was performed in GNEXT depth of interaction (DOI) dual-layer detector system. Scintica VivoQuant software was used to visualize radiotracer uptake and define the 3D volumes of interest. 3D maximum intensity projection (MIP) PET/CT images were created using IRW software.
On days 15-16 after EAE induction, mice were catheterized and placed on the 4-mouse scanning bed of the Sofie GNEXT PET/CT scanner.

GPR84 = GPR84 (Homo sapiens, UniProt Q9NQS5); assay: Radiotracer cell binding, hGPR84-HEK-293 vs control HEK-293 cells, with or without GLPG1205 block; assay type: cell-based; design: host or cells: HEK-293 cells, lentivirally transduced, puromycin-selected monoclonal line; conditions: for fold higher binding to hGPR84-HEK-293 cells vs control cells: 40 min incubation; for reduction of tracer binding in hGPR84-HEK293 cells by GLPG1205: co-incubation with GLPG1205 35 μM (1000× by mass), 40 min
Sequence of GPR84 (Q9NQS5 whole entry): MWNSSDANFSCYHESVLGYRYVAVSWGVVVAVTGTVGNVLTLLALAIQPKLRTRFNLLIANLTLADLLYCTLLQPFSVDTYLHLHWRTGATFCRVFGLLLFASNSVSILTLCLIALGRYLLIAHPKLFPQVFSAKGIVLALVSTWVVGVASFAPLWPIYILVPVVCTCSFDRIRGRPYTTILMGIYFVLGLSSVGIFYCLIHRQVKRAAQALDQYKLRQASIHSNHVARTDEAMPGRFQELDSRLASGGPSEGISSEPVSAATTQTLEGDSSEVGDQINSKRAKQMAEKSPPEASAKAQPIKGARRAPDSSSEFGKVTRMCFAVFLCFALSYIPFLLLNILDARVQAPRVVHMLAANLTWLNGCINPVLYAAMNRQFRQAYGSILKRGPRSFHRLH
Description: GPR84-transduced HEK-293 cells and control HEK-293 cells were plated at a concentration of 3×10^5 cells per well in media (DMEM with 10% FBS and 1% anti-anti) into three 12-well plates 16-24 hr prior to the cell binding assay. Once cells reached ˜90% confluency, the radiotracer was prepared. […] The radiotracer was diluted in DMEM without FBS or antibiotic to yield a 30 mL solution where the amount of activity was 25 μCi in 500 μL. The first 12-well plate was incubated for 20 minutes at 37° C. and 5% CO2 in air while the next was incubated for 40 minutes at the same conditions. Cells were subsequently washed with PBS, trypsinized, resuspended in DMEM+10% FBS, and pipetted into gamma counting tubes at 500 μL volume. Radioactivity levels bound to cells were measured in a gamma counter (Hidex Oy, Helsinki, Finland), and cell counts were recorded using Trypan blue and an automatic cell counter to normalize radioactivity levels to cell count.
At the indicated time points, plates were placed on ice, washed three times with ice-cold phosphate-buffered saline (PBS), and trypsinized (150 μL per well) for 2 min at 37° C. The trypsin was neutralized by adding 600 μL DMEM containing 10% FBS (original cell culture media) to each well. […] Gamma counting was performed to quantitate percentage radiotracer uptake by the cells and decay-corrected radioactivity was determined (Hidex automated gamma counter). Finally, cells in each gamma counting tube were counted by using the Countess cell counter (Life Technologies). Cell binding was expressed in terms of % uptake/million cells.
GPR84-transduced HEK-293 cells and control HEK-293 cells from Creative Biogene were plated at a concentration of 3×10^5 cells per well in media (DMEM with 10% FBS and 1% anti-anti) into a 12-well plate for 16-24 hr. HEK-293 cells were stably transduced via the following process from Creative Biogene: construction of pLVX-CMV-Human-GPR84-PGK-Puro lentiviral expression plasmid, lentivirus production, lentivirus transduction, puromycin selection of polyclonal stable HEK293-Human-GPR84 cells, screening of monoclonal stable HEK293-Human-GPR84 cells via limited dilution, validation using qPCR, then mycoplasma detection by PCR and Lonza kit. Once cells reached ˜90% confluency, the radiotracer was prepared. The radiotracer was diluted in DMEM without FBS or antibiotic to yield a 30 mL solution such that the amount of activity was 50 μCi/mL for ^11C or 2 μCi/mL for ^18F. […] The 12-well plate was incubated for 40 min at 37° C. and 5% CO2 in air. […] Radioactivity levels bound to cells were measured in a gamma counter (Hidex Oy, Helsinki, Finland), and cell counts were recorded using Trypan blue and an automatic cell counter to normalize radioactivity levels to cell count.

| time of peak brain uptake ([2]; naive mice, n=3) | SMILES | tracer binding in LPS-challenged hMDMs compared to unstimulated cells [1] | tracer signal in LPS-challenged hMDMs after co-incubation with GLPG1205 [1] | fold higher binding to hGPR84-HEK-293 cells vs control cells (GPR84) | reduction of tracer binding in hGPR84-HEK293 cells by GLPG1205 (GPR84) | whole-brain uptake after washout, end of 60 min scan ([2]; healthy mice) | whole-brain uptake at 4 minutes post injection ([2]; naive wild-type mice) |
| --- | --- | --- | --- | --- | --- | --- | --- |
| 0.25 min | O=c1nc(OC[C@@H]2COCCO2)cc2n1CCc1cc([18F])ccc1-2 [^18F-MGX-110S] | significantly higher binding | reduced to baseline | 33.4 fold and 25 fold | > 90% |  |  |
|  | Cc1cc2c(cc1O[11CH3])CCn1c-2c(C)c(OC[C@@H]2COCCO2)cc1=O [[^11C]GLPG38] | significantly higher binding | reduced to baseline | 13.5 fold | 90% and > 90% | 3.53 % ID/g | 9.46 % ID/g |
